Here are results for 13 molecules from patent US20230024108A1, “ADENOSINE A2A RECEPTOR ANTAGONISTS” (Teon Therapeutics, Inc., priority 2019, published 2023).

One test has as its system phospho-CREB (pCREB). Briefly: Human whole blood phospho-CREB (pCREB) assay / modulation of pCREB in human immune cells. Conditions: agonist (NECA or CGS-21680)-stimulated human blood cells. The test is classed as cell-based. The protocol: Fresh human blood samples are derived from healthy volunteers and processed in heparin tubes. 67.5 ul of whole blood is aliquoted to each well in a 96-well plate and incubated at 37° C. for 30 min. Testing compounds are diluted with DMSO to make 8-point 3-fold serial dilution and 3.5 ul (20×) is added to each well. Cells are incubated with the compounds at 37° C. for 30 min. NECA (5 uM) is then added to each well and cells are incubated for 30 min at 37° C. Following the stimulation, cells are transferred to a 96-well deep well plates and fixed with 1 ml/well of lyse/fix buffer (1×) (BD Biosciences #558049) with vigorous shake at 37° C. for 10 min. Cells are centrifuged at 600 g for 6 min and washed twice with PBS, followed by addition of 800 ul/well Perm buffer III (BD Biosciences #558050). Cells are then pelleted at 600 g for 6 min, washed with FACS buffer (PBS+0.2% BSA+1 mM EDTA) and stained for 40 min at room temperature in the dark with an antibody cocktail containing PE mouse anti-human CD3 (BD Biosciences #555333, 1 ul/well), FITC mouse anti-human CD4 (BD Biosciences #5555346, 1 ul/well), PerCP-Cy™5.5 mouse anti-human CD8 (BD Biosciences #565310, 1 ul/well) and phospho-CREB (Ser133) (87G3) Rabbit mAb (Alexa Fluor® 647 Conjugate, CST #14001, 0.5 ul/well). Cells are then washed twice with FACS buffer and acquired on a flow cytometer (Sony Cell Sorter SH800). Data were analyzed using FlowJo version 9. The level of CREB phosphorylation from unstimulated cells (Low control: LC) and NECA-stimulated cells (High control: HC) are determined as mean fluorescent intensity (MFI) in stimulated condition/mean fluorescent intensity in unstimulated condition. % Inhibition is calculated as (MFI of HC-MFI of assay well)/(MFI of HC-MFI of LC)×100%. Data are analyzed and IC50s calculated using GraphPad Prism 5 and the model “log(inhibitor) vs. response—Variable slope”.
The A2A receptor is known to mediate CREB phosphorylation.
Venous blood from healthy volunteers, all of whom signed an informed consent approved by the Ethics Committee (FOR—UIC-BV-050-01-01 ICF HBS HD Version 5.0), was obtained via ImmuneHealth (Centre Hospitalier Universitaire Tivoli, La Louviere,
15 Belgium). Peripheral blood cells were treated with A2AR agonists CGS-21680 or NECA (Sigma-Aldrich, Diegem, Belgium), and a serial dilution of compounds disclosed herein (all used stock solutions at 10 mM in DMSO). All dilutions were prepared in RPMI1640 medium (with UltraGlutamine; Lonza, Venders, Belgium), and cells were incubated with compounds in a 37° C. humidified tissue culture incubator with 5% CO2.
After stimulation, cells were fixed and permeabilized, followed by intracellular staining using mouse anti-human pCREB antibodies (Clone J151-21; BD Biosciences) at room temperature. Data were acquired using an LSRFortessa flow cytometer (BD Biosciences) and analyzed using FlowJo software (FlowJo, LLC, Ashland, Oregon).

Another test addresses T1, human A2B AdoR (Homo sapiens, UniProt P29275).
T1 construct: purchased PerkinElmer ES-013-M400UA
T1 sequence (P29275 1-332): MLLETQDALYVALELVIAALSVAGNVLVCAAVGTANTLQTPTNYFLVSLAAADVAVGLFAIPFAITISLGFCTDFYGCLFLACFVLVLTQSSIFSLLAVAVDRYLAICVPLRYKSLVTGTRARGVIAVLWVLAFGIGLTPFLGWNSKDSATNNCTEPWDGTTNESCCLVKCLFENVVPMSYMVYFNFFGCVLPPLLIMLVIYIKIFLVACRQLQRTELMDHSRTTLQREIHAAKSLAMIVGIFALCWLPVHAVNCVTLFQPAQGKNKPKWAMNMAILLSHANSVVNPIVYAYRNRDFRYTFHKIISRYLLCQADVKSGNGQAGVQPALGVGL
Put plainly: Adenosine receptor binding assay, A2B ([3H]-DPCPX). Particulars: ratio A2B vs A2A binding. The procedure:
Membranes prepared from CHO-K1 cells stably expressing Human AiAdoR (ES-010-M400UA), HEK-293 cells stably expressing human A2A AdoR (RBHA2AM400UA), HEK-293 cells stably expressing human A2B AdoR (ES-013-M400UA) and CHO-K1 cells stably expressing Human A3 AdoR (ES-012-M400UA) were purchased from PerkinElmer (Waltham, Mass., USA) and stored at −80° C. until use. Binding assays are performed using the radioligands. The final concentrations are as follows: [3H]-DPCPX (PerkinElmer, NET974001MC) at 1 nM for A1AdoR; [^3H]-CGS-21680 (PerkinElmer, NET1021250UC) at 6 nM for A2AAdoR, [3H]-DPCPX (PerkinElmer, NET974001MC) at 8 nM for A2BAdoR; [^3H]-HEMADO (ARC, Cat: ART1456) at 1 nM for A3AdoR. Testing compounds are diluted with DMSO to make 8-point 4-fold serial dilution. Nonspecific binding (Low control: LC) and total binding (High control: HC) are determined in the presence or absence of saturated cold ligand. Specific binding is calculated by subtracting nonspecific binding from total binding. All assays are performed in a final volume of 200 μl containing 1 μl of the test compound in DMSO, 100 μl of membrane preparation, and 99 μl of the radioligand in assay buffer (A1AdoR: 25 mM HEPES pH 7.4, 5 mM MgCl2, 1 mM CaCl2), 100 mM NaCl; A2AAdoR: 50 mM Tris HCl pH 7.4, 10 mM MgCl2, 1 mM EDTA; A2BAdoR: 50 mM HEPES pH 7.0, 5 mM MgCl2, 1 mM EDTA; A3AdoR: 25 HEPES pH 7.4, 10 mM MgCl2, 1 mM CaCl2), 0.5% BSA). The incubation is performed at room temperature with shaking at 300 rpm for 1 hour for A1AdoR, A2BAdoR and A3AdoR and 2 hours for A2AAdoR. After the incubation, the assay mixture is filtered through 96 GF/C filter plates (Perkin Elmer #6005174) using Perkin Elmer Filtermate Harvester, and then washed four times with ice-cold washing buffer (A1AdoR: 25 mM HEPES pH 7.4, 5 mM MgCl2, 1 mM CaCl2), 100 mM NaCl; A2AAdoR: 50 mM Tris HCl pH 7.4, 154 mM NaCl; A2BAdoR: 50 mM HEPES pH 6.5, 5 mM MgCl2, 1 mM EDTA, 0.2% BSA; A3AdoR: 50 mM Tris HCl pH 7.4). The filters are dried for 1 hour at 50° C. and [^3H] trapped on filter counted for radioactivity in Perkin Elmer Microscint 20 cocktail (#6013329) using Perkin Elmer MicroBeta2 Reader. The results are expressed as a percent inhibition of the control radioligand specific binding calculated using the following equation: % Inhibition=(1−(Assay well-Average_LC)/(Average_HC−Average_LC))×100%. Data are analyzed and IC50 is calculated using GraphPad Prism 5 and the model “log(inhibitor) vs. response—Variable slope”. The binding affinity of the compounds is determined by using the Cheng and Prusoff equation Ki=IC50/(1+[radioligand]/Kd).

The target of a further test is T2, human A2A AdoR (Homo sapiens, UniProt P29274).
T2 construct: purchased PerkinElmer RBHA2AM400UA
T2 sequence (P29274 whole entry): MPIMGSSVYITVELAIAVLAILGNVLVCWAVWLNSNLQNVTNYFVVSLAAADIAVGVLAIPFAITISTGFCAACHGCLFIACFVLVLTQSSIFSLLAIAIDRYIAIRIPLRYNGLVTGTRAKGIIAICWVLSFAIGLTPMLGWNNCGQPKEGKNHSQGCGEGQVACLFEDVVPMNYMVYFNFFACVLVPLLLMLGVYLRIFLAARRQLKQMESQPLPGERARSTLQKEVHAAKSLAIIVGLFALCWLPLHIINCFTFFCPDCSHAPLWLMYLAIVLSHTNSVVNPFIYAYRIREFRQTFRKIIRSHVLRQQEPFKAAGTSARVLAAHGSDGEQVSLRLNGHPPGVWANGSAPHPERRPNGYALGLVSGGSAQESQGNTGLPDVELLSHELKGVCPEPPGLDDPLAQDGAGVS
Briefly: Adenosine receptor binding assay, A2A ([3H]-CGS-21680). Particulars: membranes of HEK-293 cells expressing human A2A AdoR; read-out: hA2A IC50. Summed up: (§1)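 Filtration binding on membranes: A2A in HEK-293 with 6 nM [3H]-CGS-21680, Tris pH 7.4, 2 h; A2B in HEK-293 with 8 nM [3H]-DPCPX, HEPES pH 7.0, 1 h; A1 in CHO-K1 with 1 nM [3H]-DPCPX, HEPES pH 7.4, 1 h; room temperature. 8-point dilutions; IC50 converted to Ki (Cheng–Prusoff).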

In a further test the target is T3, A1AdoR (Homo sapiens, UniProt P30542).
T3 construct: purchased PerkinElmer ES-010-M400UA
T3 sequence (P30542 1-326): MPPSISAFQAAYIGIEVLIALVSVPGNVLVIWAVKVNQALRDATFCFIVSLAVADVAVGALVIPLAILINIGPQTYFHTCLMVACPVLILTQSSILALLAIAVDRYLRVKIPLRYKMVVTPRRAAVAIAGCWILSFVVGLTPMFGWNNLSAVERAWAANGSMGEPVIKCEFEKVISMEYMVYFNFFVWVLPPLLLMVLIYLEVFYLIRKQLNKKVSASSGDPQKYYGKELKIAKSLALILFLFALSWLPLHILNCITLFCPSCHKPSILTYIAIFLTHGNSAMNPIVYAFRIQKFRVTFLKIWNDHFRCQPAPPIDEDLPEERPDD
Briefly: Adenosine receptor binding assay, A1 ([3H]-DPCPX). Conditions: ratio A1 vs A2A binding. Summed up: as §1

As a reminder, the EC50 is the concentration at which the effect is half-maximal. As usually defined, the IC50 is the concentration at which inhibition is half-maximal. Molecule `NC(=O)c1cc2c(nc(N)n3nc(-c4ccccn4)nc23)n1CCN1CCN(c2ccc(OCC(=O)O)cc2)CC1` yielded an EC50 in the test with phospho-CREB (pCREB) of 20 to 100 nM. Besides, at human A2B AdoR, the “A2B/A2A Selectivity” value was “a (greater than 1000)”. The IC50 at human A2A AdoR is at most 20 nM. Moreover, the “A1/A2A Selectivity” value at A1AdoR is given as “b (greater than 100 but less than or equal to 1000)”.
Take `CC#Cc1nc2c3cc(C#N)n(CCN4CCN(c5cc(-c6ncco6)ccc5F)CC4)c3nc(N)n2n1`: the half-maximal effective concentration (EC50) with phospho-CREB (pCREB) was over 100 nM. Moreover, the “A2B/A2A Selectivity” value at human A2B AdoR is on record as “a (greater than 1000)”. Besides, on human A2A AdoR, the IC50 was at most 20 nM. On A1AdoR, the “A1/A2A Selectivity” value was “a (greater than 1000)”.
In the test on phospho-CREB (pCREB), `Cc1c(C(=O)O)n(CCN2CCN(c3cc(-c4ncco4)ccc3F)CC2)c2nc(N)n3nc(-c4ccccn4)nc3c12` gave a concentration for a half-maximal effect (EC50) of at most 20 nM. Besides, the “A2B/A2A Selectivity” value on human A2B AdoR was “a (greater than 1000)”. Further, the IC50 on human A2A AdoR is at most 20 nM. Besides, the “A1/A2A Selectivity” value at A1AdoR is “a (greater than 1000)”.
Turning to `N#Cc1cc2c(nc(N)n3nc(-c4ccccn4)nc23)n1CCN1CCN(c2cc(-c3ncco3)ccc2F)CC1`, in the test on phospho-CREB (pCREB), the EC50 is over 100 nM. Besides, at human A2B AdoR, the “A2B/A2A Selectivity” value was “a (greater than 1000)”. In addition, the IC50 at human A2A AdoR was at most 20 nM. The “A1/A2A Selectivity” value at A1AdoR is “a (greater than 1000)”.
The molecule `Cc1c(C(=O)NC2CC2)n(CCN2CCN(c3cc(-c4ncco4)ccc3F)CC2)c2nc(N)n3nc(-c4ccccn4)nc3c12` gave a concentration for a half-maximal effect (EC50) with phospho-CREB (pCREB) of over 100 nM. In addition, the “A2B/A2A Selectivity” value at human A2B AdoR is listed as “a (greater than 1000)”. Further, the half-maximal inhibitory concentration (IC50) at human A2A AdoR was at most 20 nM. In addition, the “A1/A2A Selectivity” value on A1AdoR is recorded as “a (greater than 1000)”.
As to `NC(=O)c1cc2c(nc(N)n3nc(-c4ccccn4)nc23)n1CCN1CCN(c2cc(-c3ncco3)ccc2F)CC1`, the half-maximal effective concentration (EC50) in the test with phospho-CREB (pCREB) was 20 to 100 nM. Further, the “A2B/A2A Selectivity” value at human A2B AdoR is listed as “a (greater than 1000)”. For the same molecule, at human A2A AdoR, the IC50 was at most 20 nM. The “A1/A2A Selectivity” value at A1AdoR was “b (greater than 100 but less than or equal to 1000)”.
On the same counts, the results for `COCCOc1ccc(N2CCN(CCn3c(C(N)=O)cc4c3nc(N)n3nc(-c5ccccn5)nc43)CC2)cc1` are over 100 nM, “a (greater than 1000)”, at most 20 nM and “c (greater than 0 but less than or equal to 100)”.
On the same counts, the results for `COCCOc1ccc(N2CCN(CCn3c(C#N)cc4c3nc(N)n3nc(-c5ccccn5)nc43)CC2)cc1` are over 100 nM, “a (greater than 1000)”, at most 20 nM and “b (greater than 100 but less than or equal to 1000)”.
The matching figures for `CC#Cc1nc2c3cc(C#N)n(CCN4CCN(c5ccc(OCCOC)cc5)CC4)c3nc(N)n2n1`: over 100 nM, “a (greater than 1000)”, at most 20 nM and “a (greater than 1000)”.
On to `Cc1noc2cc(F)c(N3CCN(CCn4c(C#N)cc5c4nc(N)n4nc(-c6ccccn6)nc54)CC3)cc12`, for which the EC50 in the test on phospho-CREB (pCREB) is over 100 nM. The “A2B/A2A Selectivity” value at human A2B AdoR was “a (greater than 1000)”. Also, the IC50 at human A2A AdoR is at most 20 nM. Also, the “A1/A2A Selectivity” value at A1AdoR was “c (greater than 0 but less than or equal to 100)”.
On the same counts, the results for `Cc1noc2cc(F)c(N3CCN(CCn4c(C#N)c(Cl)c5c4nc(N)n4nc(-c6ccccn6)nc54)CC3)cc12` are 20 to 100 nM, “a (greater than 1000)”, at most 20 nM and “a (greater than 1000)”.
Consider `Nc1nc2c(c(Cl)nn2CCN2CCN(c3cc(-c4ncco4)ccc3F)CC2)c2nc(-c3ccccn3)nn12`, for which the EC50 in the test with phospho-CREB (pCREB) lay in the range of 20 to 100 nM. Moreover, at human A2B AdoR, the “A2B/A2A Selectivity” value is reported as “a (greater than 1000)”. Besides, at human A2A AdoR, the IC50 was at most 20 nM. Further, the “A1/A2A Selectivity” value at A1AdoR was “c (greater than 0 but less than or equal to 100)”.
In the test on phospho-CREB (pCREB), `Cc1noc2cc(F)c(N3CCN(CCn4nc(Cl)c5c4nc(N)n4nc(-c6ccccn6)nc54)CC3)cc12` gave an EC50 of at most 20 nM. Moreover, the “A2B/A2A Selectivity” value at human A2B AdoR was “a (greater than 1000)”. Further, the 50% inhibitory concentration (IC50) at human A2A AdoR is at most 20 nM. Besides, at A1AdoR, the “A1/A2A Selectivity” value is reported as “b (greater than 100 but less than or equal to 1000)”.
